One experiment relates to P. aeruginosa PAO1. As to the kind of experiment: microbe, parasite or virus in culture. The note with it: for MIC P. aeruginosa PAO1 (−): broth microdilution, LB, 1–64 μmol l^−1 two-fold dilutions, 24 h, 37 °C, OD600, mode of three independent replicates. On the procedure:
(§1) Briefly, 10^5 bacterial cells were incubated with serially diluted EPs (0–64 μmol l^−1) at 37 °C. Bacterial growth was assessed by measuring the optical density at 600 nm in a microplate reader at 1 day post-treatment. […] Secondary structure fractions were calculated using the BeStSel server. fH and fβ stand for helical and β fractions, respectively.
(In general: Broth dilution looks for growth in wells or tubes with falling amounts of substance.)

Another experiment concerns E. coli ATCC 11775. Kind of experiment: microbe, parasite or virus in culture. The note with it: for MIC E. coli ATCC 11775 (−): broth microdilution, LB, 1–64 μmol l^−1 two-fold dilutions, 24 h, 37 °C, OD600, mode of three independent replicates. The method, then:
as §1

Experiment [1] relates to S. aureus ATCC BAA-1556 (MRSA). Kind of experiment: microbe, parasite or virus in culture. The following applies: 24 h. The method, then: as §1
Experiment [2] concerns E. coli AIC222 (colistin-resistant, CRE). As to the kind of experiment: microbe, parasite or virus in culture. The following applies: 24 h; for MIC E. coli AIC222 – CRE (−): colistin-resistant strain, broth microdilution, LB, 1–64 μmol l^−1 two-fold dilutions, 37 °C, OD600, mode of three independent replicates. On the procedure:
as §1

A further experiment deals with E. coli AIC221. As to the kind of experiment: microbe, parasite or virus in culture. The following applies: for MIC E. coli AIC221 (−): broth microdilution, LB, 1–64 μmol l^−1 two-fold dilutions, 24 h, 37 °C, OD600, mode of three independent replicates. On the procedure:
as §1

The test system of experiment [3] is E. faecalis ATCC 700802 (VRE). As to the kind of experiment: Broth microdilution MIC. It counts as cell-based, Enterococcus faecalis. The following applies: vancomycin-resistant strain, LB, 1–64 μmol l^−1 two-fold dilutions, 24 h, 37 °C, OD600, mode of three independent replicates. On the procedure: as §1
Experiment [4] has as its system A. baumannii ATCC 19606. As to the kind of experiment: Neutropenic deep thigh infection mouse model. The experiment is classed as in vivo. The following applies: neutropenic female CD-1 mice, n = 6, single intraperitoneal dose 2 h after infection. The method, then: The limit of detection (LOD) for the CFU quantification is log10CFU = 2. Statistical significance in panels b and d was determined using one-way analysis of variance followed by Dunnett’s test; P values are shown in the graphs. In the violin, the centre line represents […], the box limits the 1st and 3rd quartiles, and the whiskers (minimum and maximum) represent 1.5× the interquartile range. The solid line inside each box represents […] value obtained for each group. Panels a and c created with BioRender.com. Source data
Next, we assessed the efficacy of the same lead archaeasins (archaeasin-2, archaeasin-17 and archaeasin-73) in a murine deep thigh infection model (Fig. 5c), which is widely used to assess the antibiotic potential of compounds. Mice were administered 2 rounds of cyclophosphamide treatment for immunosuppression before the intramuscular infection with 1 × 10^5 cells in 100 μl of A. baumannii. A single dose of each archaeasin (at their MIC) was delivered intraperitoneally (Fig. 5c). […] Four days post-treatment, the bacterial counts remained stable for all peptide treatment conditions and the treatments with polymyxin B and levofloxacin, while the untreated control increased by two orders of magnitude. […]

In the next experiment the test system is P. aeruginosa PA14. Kind of experiment: microbe, parasite or virus in culture. The note with it: for MIC P. aeruginosa PA14 (−): broth microdilution, LB, 1–64 μmol l^−1 two-fold dilutions, 24 h, 37 °C, OD600, mode of three independent replicates. On the procedure: as §1
Experiment [5] has as its system A. baumannii ATCC 19606. As to the kind of experiment: microbe, parasite or virus in culture. The following applies: for MIC A. baumannii ATCC 19606 (−): broth microdilution, LB, 1–64 μmol l^−1 two-fold dilutions, 24 h, 37 °C, OD600, mode of three independent replicates. On the procedure:
as §1

The test system of another experiment is S. aureus ATCC 12600. Kind of experiment: microbe, parasite or virus in culture. The method, then: as §1
The next experiment deals with K. pneumoniae ATCC 13883. Kind of experiment: microbe, parasite or virus in culture. The note with it: for MIC K. pneumoniae ATCC 13883 (−): broth microdilution, LB, 1–64 μmol l^−1 two-fold dilutions, 24 h, 37 °C, OD600, mode of three independent replicates. On the procedure:
as §1

Experiment [6] deals with E. faecium ATCC 700221 (VRE). As to the kind of experiment: microbe, parasite or virus in culture. The note with it: 24 h. The method, then:
as §1

We go through two compounds from paper PMC12408343, “Deep learning reveals antibiotics in the archaeal proteome” (Nature Microbiology, 2025).

≈ marks a conversion by molar mass, not a printed value. Bridge positions count the residues as written; N and C are the ends. Square brackets hold non-standard residues; d marks the D form. Peptide text beside a SMILES is read from it. * marks the point of attachment. X1 = CC[C@H](C)CCCCC(=O)*; Dab = NCC[C@H](N)C(=O)O

On to `C[C@H]1COc2c(N3CCN(C)CC3)c(F)cc3c(=O)c(C(=O)O)cn1c23` [Levofloxacin, reference compound], for which the MIC stood at 4 µM (≈ 1.45 µg/mL) in the experiment on P. aeruginosa PAO1 (Pseudomonas aeruginosa, PAO1, 24 h, read-out: MIC P. aeruginosa PAO1 (−)); 0.125 µM (≈ 0.0452 µg/mL) in the experiment on E. coli ATCC 11775 (Escherichia coli, ATCC11775, 24 h, read-out: MIC E. coli ATCC 11775 (−)); 32 µM (≈ 11.6 µg/mL) in experiment [1] (Staphylococcus aureus, ATCCBAA1556|MRSA, read-out: MIC S. aureus ATCC BAA-1556 – MRSA (+)); 0.25 µM (≈ 0.0903 µg/mL) in experiment [2] (Escherichia coli, read-out: MIC E. coli AIC222 – CRE (−)); 0.125 µM (≈ 0.0452 µg/mL) in the experiment with E. coli AIC221 (Escherichia coli, AIC221, 24 h, read-out: MIC E. coli AIC221 (−)); 2 µM (≈ 0.723 µg/mL) in [3] (Enterococcus faecalis). Also, the MIC in the experiment with P. aeruginosa PA14 (Pseudomonas aeruginosa, PA14, 24 h, read-out: MIC P. aeruginosa PA14 (−)) came out at 0.5 µM (≈ 0.181 µg/mL); in the experiment on A. baumannii ATCC 19606 [5] (Acinetobacter baumannii, ATCC19606, 24 h, read-out: MIC A. baumannii ATCC 19606 (−)), 1 µM (≈ 0.361 µg/mL); in the experiment with S. aureus ATCC 12600 (Staphylococcus aureus, ATCC12600, 24 h, read-out: MIC S. aureus ATCC 12600 (+)) it was 2 µM (≈ 0.723 µg/mL); with K. pneumoniae ATCC 13883 (Klebsiella pneumoniae, ATCC13883, 24 h, read-out: MIC K. pneumoniae ATCC 13883 (−)), 1 µM (≈ 0.361 µg/mL); in experiment [6] (Enterococcus faecium, ATCC700221|VRE, read-out: MIC E. faecium ATCC 700221 – VRE (+)) it was 16 µM (≈ 5.78 µg/mL). Moreover, the “MIC P. aeruginosa PAO1 (−)” value against P. aeruginosa PAO1 amounted to 4 µM (≈ 1.45 µg/mL). Besides, in the experiment with E. coli ATCC 11775, the “MIC E. coli ATCC 11775 (−)” value was found to be 0.125 µM (≈ 0.0452 µg/mL). In [1] (methicillin-resistant strain, broth microdilution, LB, 1–64 μmol l^−1 two-fold dilutions, 37 °C, OD600, mode of three independent replicates), the “MIC S. aureus ATCC BAA-1556 – MRSA (+)” value was found to be 32 µM (≈ 11.6 µg/mL). Further, the “MIC E. coli AIC222 – CRE (−)” value in experiment [2] was 0.25 µM (≈ 0.0903 µg/mL). In addition, in the experiment on E. coli AIC221, the “MIC E. coli AIC221 (−)” value was 0.125 µM (≈ 0.0452 µg/mL). For the same compound, the “MIC E. faecalis ATCC 700802 – VRE (+)” value in experiment [3] came out at 2 µM (≈ 0.723 µg/mL). Also, in the experiment with A. baumannii ATCC 19606 [4], the “reduction of bacterial load, deep thigh infection, four days post-treatment” value was “three”. For the same compound, the “MIC P. aeruginosa PA14 (−)” value against P. aeruginosa PA14 amounted to 0.5 µM (≈ 0.181 µg/mL). Moreover, the “MIC A. baumannii ATCC 19606 (−)” value with A. baumannii ATCC 19606 [5] was 1 µM (≈ 0.361 µg/mL). For the same compound, the “MIC S. aureus ATCC 12600 (+)” value against S. aureus ATCC 12600 (broth microdilution, LB, 1–64 μmol l^−1 two-fold dilutions, 24 h, 37 °C, OD600, mode of three independent replicates) came to 2 µM (≈ 0.723 µg/mL). Moreover, the “MIC K. pneumoniae ATCC 13883 (−)” value against K. pneumoniae ATCC 13883 worked out at 1 µM (≈ 0.361 µg/mL). Further, the “MIC E. faecium ATCC 700221 – VRE (+)” value in [6] (vancomycin-resistant strain, broth microdilution, LB, 1–64 μmol l^−1 two-fold dilutions, 37 °C, OD600, mode of three independent replicates) worked out at 16 µM (≈ 5.78 µg/mL).

As to `CC[C@H](C)CCCCC(=O)N[C@@H](CCN)C(=O)N[C@H](C(=O)N[C@@H](CCN)C(=O)N[C@H]1CCNC(=O)[C@H]([C@@H](C)O)NC(=O)[C@H](CCN)NC(=O)[C@H](CCN)NC(=O)[C@H](CC(C)C)NC(=O)[C@@H](Cc2ccccc2)NC(=O)[C@H](CCN)NC1=O)[C@@H](C)O` [Polymyxin B, reference compound] (X1-[Dab]T[Dab][Dab][Dab][dF]L[Dab][Dab]T; lactam 4-C (inferred); N-terminus assumed), the “MIC P. aeruginosa PAO1 (−)” value against P. aeruginosa PAO1 is 4 µM (≈ 4.81 µg/mL). In addition, the “MIC E. coli ATCC 11775 (−)” value in the experiment with E. coli ATCC 11775 came out at 0.25 µM (≈ 0.301 µg/mL). Besides, the “MIC E. coli AIC222 – CRE (−)” value in experiment [2] is 8 µM (≈ 9.63 µg/mL). The “MIC E. coli AIC221 (−)” value in the experiment on E. coli AIC221 came out at 0.25 µM (≈ 0.301 µg/mL). Besides, in the experiment with A. baumannii ATCC 19606 [4], the “reduction of bacterial load, deep thigh infection, four days post-treatment” value was “three”. For the same compound, the “MIC P. aeruginosa PA14 (−)” value against P. aeruginosa PA14 was determined as 8 µM (≈ 9.63 µg/mL). Also, in the experiment on A. baumannii ATCC 19606 [5], the “MIC A. baumannii ATCC 19606 (−)” value is 0.5 µM (≈ 0.602 µg/mL). Further, the “MIC K. pneumoniae ATCC 13883 (−)” value with K. pneumoniae ATCC 13883 was determined as 8 µM (≈ 9.63 µg/mL).
